In patent EP1200395B1, “UREA DERIVATIVES AS INHIBITORS OF CCR-3 RECEPTOR” (KIRIN BEER KABUSHIKI KAISHA, priority 1999, dated 2001):

Target: T1, CCR-3 (Homo sapiens, UniProt P51677)
T1 sequence (P51677 1-355): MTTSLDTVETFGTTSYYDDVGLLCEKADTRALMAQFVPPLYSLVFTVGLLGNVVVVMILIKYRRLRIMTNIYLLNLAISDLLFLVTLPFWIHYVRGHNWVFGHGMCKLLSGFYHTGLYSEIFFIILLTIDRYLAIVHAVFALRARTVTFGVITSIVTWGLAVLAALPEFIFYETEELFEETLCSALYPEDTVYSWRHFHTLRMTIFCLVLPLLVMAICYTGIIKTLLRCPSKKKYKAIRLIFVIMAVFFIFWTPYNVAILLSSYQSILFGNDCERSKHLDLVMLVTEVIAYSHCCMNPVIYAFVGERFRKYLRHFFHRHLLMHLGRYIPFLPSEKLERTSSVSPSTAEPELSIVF
Test: Eotaxin-induced chemotaxis of CCR-3 transfectant cells (CCR3/U937)
Format: cell-based
Parameters: expressed in transfected cells; host or cells: U937
Settings: 10 µM test compound; eotaxin 1 x 10^-9 M; CCR3/U937 cells (Table 3a)
Experimental: The inhibitory activity of the compounds against eotaxin-induced chemotaxis was determined by measuring the inhibition of migration of CCR-3 transfectant cells (CCR3/U937), using a minor modification of the method described by Ohashi, H. et al., Int Arch Allergy Immunol. […] The chemotaxis assay was performed in a 24-well culture plate. Human eotaxin suspended in assay medium was added to the wells at 1 x 10^-9 M along with test compounds at various concentrations. For a positive control, eotaxin was added to the wells without a test compound, and for a negative control, neither eotaxin nor a test compound was added to the wells. Chemotaxicell (Kurabo Co., Ltd.) having 5 micrometers pore size were inserted into each well and 100 micro liters of CCR-3 transfectant cells suspension were added to the top chamber. The plates were incubated at 37 °C for 1 hour. After incubation, migrated cells in lower wells were diluted and counted by particle size distribution analyzer (CDP-500, Sysmex Co., Ltd.).

Compound	Chemotaxis Assay 10 µM (inhibition %)
CCN(CCCCNC(=O)Nc1ccc([N+](=O)[O-])cc1)CCc1ccc(Cl)cc1 [Compound 5]	99%
CCN(CCCCNC(=O)Nc1ccccc1)CCc1ccc(Cl)cc1 [Compound 7]	99%
CCN(CCCCCNC(=O)Nc1ccccc1)CCc1ccc(Cl)cc1 [Compound 8]	94%
CCN(CCCNC(=O)Nc1ccccc1)CCc1ccccc1 [Compound 11]	86%
CCCCN(CCCNC(=O)Nc1ccccc1)CCc1ccc(Cl)cc1 [Compound 14]	97%
N#Cc1ccc(CN(CCCNC(=O)Nc2ccccc2)CCc2ccc(Cl)cc2)cc1 [Compound 16]	63%
O=C(NCCCN(CCc1ccc(Cl)cc1)Cc1ccncc1)Nc1ccccc1 [Compound 24]	100%
O=C(NCCCN(CCc1ccc(Cl)cc1)Cc1ccccc1)Nc1ccccc1 [Compound 28]	76%
COC(=O)CCCN(CCCNC(=O)Nc1ccc(Br)cc1)C1CCCc2ccccc21 (centres unmarked) [Compound 29, methyl 4-[[3-(4-bromophenylureido)propyl](1,2,3,4-tetrahydro-1-naphthyl)amino]butylate]	100%
COC(=O)CCCN(CCCNC(=O)Nc1ccc(Br)cc1)[C@H](C)c1ccccc1 [Compound 30, Methyl 4-[[3-(4-bromophenylureido)propyl][(1R)-1-phenylethyl]-amino]butylate]	100%
COC(=O)CCCN(CCCNC(=O)Nc1ccc(Br)cc1)CCc1ccc(Cl)cc1 [Compound 31, Methyl 4-[[3-(4-bromophenylureido)pcopyl][2-(4-chlorophenyl)-ethyl]amino]butylate]	. 97%
COC(=O)CCCN(CCCCNC(=O)Nc1ccc(Br)cc1)C1CCCc2ccccc21 (centres unmarked) [Compound 32, Methyl 4-[[4-(4-bromophenylureido)butyl](1,2,3,4-tetrahydro-1-naphthyl)amino]butylate]	99%
COC(=O)CCCN(CCCCCNC(=O)Nc1ccc(Br)cc1)C1CCCc2ccccc21 (centres unmarked) [Compound 33, Methyl 4-[[5-(4-bromophenylureido)penryl](1,2.3,4-tetrahvdro-1-naphthyl)amino]burylate]	95%
COC(=O)CCCN(CCCNC(=O)Nc1ccc(C)cc1)C1CCCc2ccccc21 (centres unmarked) [Compound 34, Methyl 4-[[3-(4-methylphenylureido)propyl](1,2,3,4-tetrahydro-1-naphthyl)amino]butylate]	96%
COC(=O)CCCN(CCCNC(=O)Nc1ccc(Cl)c(Cl)c1)C1CCCc2ccccc21 (centres unmarked) [Compound 35, Methyl 4-[[3-(3,4-dichlorophenylureido)propyl](1,2,3,4-tetrahydro-1-naphthyl)amino]burylate]	100%
COC(=O)CCCN(CCCNC(=O)Nc1ccc(Br)cc1)Cc1ccccc1 [Compound 37]	100%
COC(=O)CCCN(CCCNC(=O)Nc1ccc(Br)cc1)Cc1ccc2c(c1)OCO2 [Compound 40]	88%
COC(=O)CCCN(CCCNC(=O)Nc1ccc(Br)cc1)CCc1ccccc1 [Compound 42]	96%
COC(=O)CCCN(CCCNC(=O)Nc1ccc(Br)cc1)C(Cc1ccccc1)c1ccccc1 (centres unmarked) [Compound 45]	62%

Compound	Chemotaxis Assay 10 µM (inhibition %)
COC(=O)CCCN(CCCNC(=O)Nc1ccc(Br)cc1)Cc1ccncc1 [Compound 48]	34%
COC(=O)CCCN(CCCNC(=O)Nc1ccccc1)CCc1ccc(Cl)cc1 [Compound 49]	100%
COC(=O)CCCN(CCCNC(=O)Nc1cccc(Cl)c1)C1CCCc2ccccc21 (centres unmarked) [Compound 51]	100%
COC(=O)CCCN(CCCNC(=O)Nc1cccc(C)c1)C1CCCc2ccccc21 (centres unmarked) [Compound 52]	100%
COC(=O)CCCN(CCCNC(=O)Nc1ccc(Cl)c(C(F)(F)F)c1)C1CCCc2ccccc21 (centres unmarked) [Compound 53]	93%
COC(=O)CCCN(CCCNC(=O)Nc1ccccc1-c1ccccc1)C1CCCc2ccccc21 (centres unmarked) [Compound 54]	19%
COC(=O)CCCN(CCCNC(=O)Nc1ccc(OC)cc1OC)C1CCCc2ccccc21 (centres unmarked) [Compound 55]	38%
COC(=O)CCCN(CCCNC(=O)Nc1ccccc1)C1CCCc2ccccc21 (centres unmarked) [Compound 56]	100%
COC(=O)CCCN(CCCNC(=O)Nc1ccc(OC)cc1)C1CCCc2ccccc21 (centres unmarked) [Compound 57]	100%
COC(=O)CCCN(CCCNC(=O)Nc1ccc(Oc2ccccc2)cc1)C1CCCc2ccccc21 (centres unmarked) [Compound 58]	100. %
COC(=O)CCCN(CCCNC(=O)Nc1cccc2ccccc12)C1CCCc2ccccc21 (centres unmarked) [Compound 59]	87%
O=C(O)CCCN(CCCNC(=O)Nc1ccc(Br)cc1)Cc1ccco1 [Compound 68]	31%
O=C(O)CCCN(CCCNC(=O)Nc1ccc(Br)cc1)Cc1cccs1 [Compound 69]	81%
O=C(O)CCCN(CCCNC(=O)Nc1ccc(Br)cc1)Cc1ccc2c(c1)OCO2 [Compound 70]	89%
O=C(O)CCCN(CCCNC(=O)Nc1ccc(Br)cc1)Cc1ccc(C(F)(F)F)cc1 [Compound 71]	64%
O=C(O)CCCN(CCCNC(=O)Nc1ccc(Br)cc1)CCc1ccccc1 [Compound 72]	68%
COc1ccc(CCN(CCCNC(=O)Nc2ccc(Br)cc2)CCCC(=O)O)cc1OC [Compound 73]	44%
O=C(O)CCCN(CCCNC(=O)Nc1ccc(Br)cc1)CCc1c[nH]c2ccccc12 [Compound 74]	50%
O=C(O)CCCN(CCCNC(=O)Nc1ccc(Br)cc1)C(Cc1ccccc1)c1ccccc1 (centres unmarked) [Compound 75]	68%

Same assay, conditions: U-937; 10 µM test compound; eotaxin 1 x 10^-9 M; CCR3/U937 cells (Table 3a)

Compound	inhibition at 10 µM [%]
CCN(CCCNC(=O)Nc1ccc([N+](=O)[O-])cc1)CCc1ccc(Cl)cc1 [Compound 2, N-(4-Nitrophenylcarbamoyl)-N'-[2-(4-chlorophenyl)ethyl]-N'-ethyl-1,3-diaminopropane]	100
CCN(CCCNC(=O)Nc1ccc(Cl)cc1)CCc1ccc(Cl)cc1 [Compound 6]	100
CCN(CCCNC(=O)Nc1ccccc1OC)CCc1ccc(Cl)cc1 [Compound 9]	100
CCCN(CCCNC(=O)Nc1ccccc1)CCc1ccc(Cl)cc1 [Compound 10, N-Phenylcarbamoyl-N'-[2-(4-chlorophenyl)ethyl]-N'-propyl-1,3-diaminopropane]	99
O=C(NCCCN(CCc1ccc(Cl)cc1)Cc1ccc(Cl)cc1)Nc1ccccc1 [Compound 17]	51
COc1ccc(CN(CCCNC(=O)Nc2ccccc2)CCc2ccc(Cl)cc2)cc1 [Compound 18]	58
CC(C)(C)c1ccc(CN(CCCNC(=O)Nc2ccccc2)CCc2ccc(Cl)cc2)cc1 [Compound 19]	47
O=C(NCCCN(CCc1ccc(Cl)cc1)Cc1cnc2ccccc2c1)Nc1ccccc1 [Compound 20]	26
Cc1ccc(CN(CCCNC(=O)Nc2ccccc2)CCc2ccc(Cl)cc2)cc1 [Compound 21]	40
CCOC(=O)c1ccc(CN(CCCNC(=O)Nc2ccccc2)CCc2ccc(Cl)cc2)o1 [Compound 22]	25
O=C(NCCCN(CCc1ccc(Cl)cc1)Cc1cccnc1)Nc1ccccc1 [Compound 23]	82
O=C(NCCCN(CCc1ccccc1)CCc1ccc(Cl)cc1)Nc1ccccc1 [Compound 25]	88
CN(CCCNC(=O)Nc1ccccc1)CCc1ccc(Cl)cc1 [Compound 27]	97
COC(=O)CCCN(CCCNC(=O)Nc1ccc(Br)cc1)Cc1cccs1 [Compound 39]	78
COC(=O)CCCN(CCCNC(=O)Nc1ccc(Br)cc1)CCc1ccc(OC)c(OC)c1 [Compound 43]	50
O=C(O)CCCN(CCCCNC(=O)Nc1ccc(Br)cc1)C1CCCc2ccccc21 (centres unmarked) [Compound 62, 4-[[4-(4-Bromophenylureido)butyl](1,2,3,4-tetrahydro-1-naphthyl)-amino]butanoic acid]	98
O=C(O)CCCN(CCCCCNC(=O)Nc1ccc(Br)cc1)C1CCCc2ccccc21 (centres unmarked) [Compound 63, 4-[[5-(4-Bromophenylureido)pentyl](1,2,3,4-tetrahydro-1-naphthyl)-amino]butanoic acid]	100
Cc1ccc(NC(=O)NCCCN(CCCC(=O)O)C2CCCc3ccccc32)cc1 (centres unmarked) [Compound 64, 4-[[3-(4-Methylphenylureido)propyl](1,2,3,4-tetrahydro-1-naphthyl)-amino]butanoic acid]	100
